{"source": "patent US20030212034A1", "about": "“Method of treatment of obesity and paralyzed muscle and ergogenic aids” (priority 2002, published 2003)", "type_in_all_cases": "in vivo, rat", "key": {"[1]": {"test_system": "malate dehydrogenase", "assay": "Muscle malate dehydrogenase activity after chronic AICAR injection", "conditions": "AICAR 1 mg/g daily 4 wk, FIG. 4", "description": "(§1) To determine the effect of chronic injection of AICAR on muscle enyzme activities or expression and on muscle GLUT4, rats were injected subcutaneously (between 8 and 10 a.m.) with AICAR (1 mg/g) or saline vehicle daily for 28±1 days in succession. Beginning with the first injection, controls were pair fed with AICAR-injected rats. Rats were anesthetized by intraperitoneal injection of pentobarbital sodium 22-25 hours after the last AICAR injection and the white and red regions of the quadriceps and the soleus muscles were removed and frozen as described above. Muscles were kept frozen at −70° C. until analyzed. Liver, heart, kidney, and fat pads were weighed.\n(§2) For enzyme activity measurements, 10% homogenates were made from the respective muscles in 175 mM KCl, 10 mM GSH, 2 mM EDTA, pH 7.4. This homogenate was frozen and thawed 3 times and mixed thoroughly prior to enzymatic measurements. For succinate dehydrogenase and lactate dehydrogenase, an aliquot of the homogenate was centrifuged at 700×g for 10 min at 4° C. The remainder of the assays were performed on aliquots and dilutions of the mixed whole homogenate. Assays were performed by the following methods: citrate synthase, succinate dehydrogenase, the mitochondrial fraction of malate dehydrogenase, hexokinase, lactate dehydrogenase, carnitine palmitoyl transferase and hydroxyacyl-CoA dehydrogenase. Srere, P. A. Methods in Enzymology 13:3-6, 1969; King, T. E. Methods Enzymol 10:322-335, 1967; Shonk, C. E. & G. E. Boxer, Cancer Res. 24:709-721, 1964; Uyeda, K., & E. Racker, J. Biol Chem 240:4682-4688, 1965; Pesce, A., et al. J. Biol. Chem. 239:1753-1761, 1964; Baldwin, K. M., et al. Am. J. Physiol 222:373-378, 1972; Mole, P. A., et al. J. Clin. Invest. 50:2323-2330, 1971; Kobayashi, A. et al. J. Biochem. 119:775-782, 1996."}, "[2]": {"test_system": "carnitine palmitoyl-transferase", "assay": "Muscle carnitine palmitoyl-transferase activity after chronic AICAR injection", "conditions": "chronic AICAR 1 mg/g daily 4 wk", "description": "as §1, §2"}, "[3]": {"test_system": "GLUT4", "assay": "GLUT4 western blot in 3-day denervated and contralateral muscles after AICAR injections", "description": "Rats were anesthetized with ether and the sciatic nerve of the right hindlimb was severed. The left hindlimb was sham operated to serve as a control. Both skin wounds were closed with a metal clips. The rats used for the acute study were also implanted with a jugular catheter which was exteriorized on the back of the neck at the time of denervation for rapid administration of anesthesia.\nMuscle was ground to a powder under liquid nitrogen and homogenized ([…]) in HEPES buffer [25 mM HEPES, 1 mM EDTA, 1 mM benzamadine, 1 mM 4-(2-aminoethyl)-benzene+sulfonyl fluoride, 1 μM leupeptin, 1 μM antitrypsin, 1 μM aprotinin, pH 7.5]. This homogenate was then diluted with water and Laemmli's buffer (1 mL homogenate:2 mL water: 1 mL buffer) immediately before loading. 20 μL of this homogenate were then loaded onto a 10% SDS-PAGE mini gel (Tris-HCl ready gels, BioRad, Hercules, Calif.). Samples were subjected to electrophoresis at 200 V for 45 minutes. Proteins were transferred from gel to nitrocellulose membrane at 100V for 50 minutes. Membranes were blocked in 5% non-fat milk (BioRad, Hercules, Calif.) in PBST (139 mM NaCl, 2.7 mM KH2PO4, 9.9 mM Na2HPO4, and 0.05% Tween-20) and were then left overnight with GLUT4 polyclonal antibody (Biogenesis, Kingston, N.H.) in 5% dried milk solution (1:5000 dilution). After washing twice in PBST, and twice in PBS (139 mM NaCl, 2.7 mM KH2PO4, 9.9 mM Na2HPO4), the membranes were exposed to horseradish peroxidase-conjugated donkey anti-rabbit IgG (Amersham Life Sciences, Arlington Heights, Ill.) for 1 h. at room temperature. After again washing twice with PBST and twice with PBS, the membranes were incubated in enhanced chemoluminescence-detection reagent and then visualized on enhanced chemoluminescence hyperfilm (Amersham Life Sciences). Relative amounts of GLUT4 were then quantified using a Hewlett Packard Scan Jet 6200C and SigmaGel software (SPSS, Chicago, Ill.). Western blot data are expressed as arbitrary units where individual values were divided by the mean basal GLUT4 value (sham operated leg/injected with 0.9%/NaCl solution).\nRats were injected either with AICAR (1 mg in 0.9% NaCl/g body weight) or a 0.9% NaCl solution ˜0, ˜24, and ˜48 hours after denervation and were then sacrificed ˜72 hours after denervation without injection. Rats were anesthetized with sodium pentobarbital (4.8 mg/100 g. body weight), soleus and gastrocnemius muscles from both sham and denervated sides were extracted, and muscles were quick frozen in liquid nitrogen and stored for analysis.\nRats were denervated as described above between 8:00 and 10:00 and were immediately injection with either 0.9% NaCl solution (n=4), 0.1 mg AICAR in 0.9% NaCl/g body weight (n=4), 0.5 mg AICAR in 0.9% NaCl/g body weight (n=3), or 1 mg AICAR in 0.9% NaCl/g body weight (n=4). Rats of each treatment group were subsequently injected with the respective AICAR solutions at ˜24 and ˜48 hours after denervation. Rats were killed ˜72 hours after denervation without an AICAR injection and muscles were collected as described above."}, "[4]": {"test_system": "hexokinase", "assay": "Muscle hexokinase activity after chronic AICAR injection", "conditions": "AICAR 1 mg/g 4 weeks, FIG. 5", "description": "as §1, §2"}}, "data": [{"smiles": "NC(=O)c1ncn([C@@H]2O[C@H](CO)[C@@H](O)[C@H]2O)c1N", "note": "[AICAR, 5-aminoimidazole-4-carboxamide-1-β-D-ribofuranoside]", "values": [{"measurement": "malate dehydrogenase activity vs controls", "setting": "[1]; red quadriceps", "result": "not in red quadriceps"}, {"measurement": "malate dehydrogenase activity vs controls", "setting": "[1]; soleus", "result": "all increased"}, {"measurement": "malate dehydrogenase activity vs controls", "setting": "[1]; white quadriceps", "result": "all increased"}, {"measurement": "CPT activity", "setting": "[2]; red quadriceps", "result": "0.46 ± 0.02", "unit": "µmol/g/min"}, {"measurement": "CPT activity", "setting": "[2]; soleus", "result": "0.62 ± 0.02", "unit": "µmol/g/min"}, {"measurement": "CPT activity", "setting": "[2]; white quadriceps", "result": "0.16 ± 0.01", "unit": "µmol/g/min"}, {"measurement": "GLUT4 content, percent intensity of saline-treated contralateral innervated controls", "setting": "[3]; contralateral innervated gastrocnemius, AICAR 1 mg/g for 3 days", "result": 130.1, "unit": "%"}, {"measurement": "GLUT4 content, percent intensity of saline-treated contralateral innervated controls", "setting": "[3]; denervated gastrocnemius, AICAR 1 mg/g for 3 days, saline denervated 60.1%", "result": 106.6, "unit": "%"}, {"measurement": "dose dependent response of GLUT4 vs saline-treated denervated gastrocnemius", "setting": "[3]; denervated gastrocnemius, doses 0.1, 0.5, 1 mg/g, result for the 1 mg/g dose, FIG. 11", "result": "only dose that significantly raises GLUT4 content"}, {"measurement": "increase of GLUT4 vs. saline-treated denervated gastrocnemius controls", "setting": "[3]; denervated gastrocnemius, subcutaneous AICAR injections", "result": 80, "unit": "%"}, {"measurement": "GLUT4 content, percent of saline-treated contralateral controls", "setting": "[3]; denervated soleus, AICAR 1 mg/g for 3 days, saline denervated 72.6%, not significant", "result": 85.4, "unit": "%"}, {"measurement": "dose dependent response of GLUT4 vs saline-treated innervated gastrocnemius", "setting": "[3]; innervated gastrocnemius, doses 0.1, 0.5, 1 mg/g, result for the 1 mg/g dose, FIG. 11", "result": "only dose that significantly raises GLUT4 content"}, {"measurement": "hexokinase activity vs saline-injected controls", "setting": "[4]; red region of the quadriceps", "result": "significantly increased"}, {"measurement": "hexokinase activity vs saline-injected controls", "setting": "[4]; soleus", "result": "increase in hexokinase activity in soleus was statistically significant"}, {"measurement": "hexokinase activity vs saline-injected controls", "setting": "[4]; white region of the quadriceps", "result": "significantly increased"}]}]}
